Results reported in US10450293B2, “Chemokine CXCR4 and CCR5 receptor modulators and uses related thereto” (Emory University, priority 2014, dated 2019).
Where two headings read alike, the source gives them in different places.

Columns and labels:
HIV-1 IIIB = experiment: HIV-1 MAGI assay, IIIB (CXCR4 / T-tropic); assay type: cell-based
Experimental: (§1) Bayesian statistical models were constructed using known CXCR4 and CCR5 active compounds from literature, and these models were used to virtually screen 5 million compounds in the Aldrich Marketplace Select library. The screen yielded 14 compounds of interest that were then tested for their anti-HIV activity for both tropisms in MAGI assay. Two compounds (FIG. 1, compounds 1 and 2) were active against both T and M tropic forms of HIV with IC50 values of ˜20 μM. These initial hits were followed-up by a second round of virtual screening based on similarity and sub-structure searching. Another 24 compounds were purchased from the same database and tested. […] This compound was then subjected to a series of biological evaluations to determine activity profile and confirm mechanism of action.

HIV-1 Ba-L = experiment: HIV-1 MAGI assay, Ba-L (CCR5 / M-tropic); assay type: cell-based; conditions: Human immunodeficiency virus 1, BAL
Experimental: as §1

MAGI toxicity = conditions: human, MAGI cells, TC50, table of synthesized compounds
[1] = biological target: T1, HIV-1 reverse transcriptase (Human immunodeficiency virus type 1 group M subtype B, UniProt P03366); experiment: biochemical; assay type: biochemical; conditions: for IC50: read-out: RT IC50
CXCR4 [2] = biological target: T2, CXCR4 (Homo sapiens, UniProt P61073); experiment: Nef-M1:CXCR4 induced mitochondrial membrane depolarization (MMD) inhibition in Jurkat cells; assay type: cell-based; parameters: endogenous in cells; host or cells: Jurkat; conditions: in words
CCR5 = biological target: T3, CCR5 (Homo sapiens, UniProt P51681); experiment: HeLa-C14:JRFL CD4-dependent cell-cell fusion assay; assay type: cell-based; conditions: luciferase readout, in words
T3 construct: expressed in transfected cells; host or cells: HeLa-C14
Excerpt: Cell-cell fusion assays measure specifically co-receptor mediated inhibition of gp120-induced fusion in the absence of other viral machinery, and these assays were used to explore the CCR5- and CXCR4-specific antiviral activity. A cell-cell fusion assay was constructed to simulate HIV-1 entry in the absence of other viral machinery. The assay measured fusion of effector cells expressing the JRFL envelope (CCR5-tropic/CD4 dependent) with HeLa-C14 target cells (expressing CD4, CCR5, and CXCR4) using a luciferase readout (FIG. 5A).

[3] = system: NNRTI-resistant viral strain containing the K103N/Y181C mutations; assay type: cell-based
[4] = biological target: T1, HIV-1 reverse transcriptase; experiment: STD-NMR binding epitope study, HIV-1 reverse transcriptase; conditions: 1 mM compound, 30 ng/ml HIV reverse transcriptase
Experimental: (§2) Saturation Transfer Difference Spectroscopy (STD) was used to study the interactions between m7CCR5, HIV-1 reverse transcriptase, CXCR4, and compound 2 disclosed herein. Brandt et al., J Biol Chem. 2002, 277(19):17291-9. […] An on-resonance spectrum is recorded where m7CCR5 is selectively saturated giving rise to compound signals intensities.
(§3) The difference of off-resonance from the on-resonance spectrum results in the STD spectrum indicating proton that are in close contact to the protein surface. Non-binding protons cancelled out. The signal intensities can be quantified indicating the relative distance of the proton. Normalizing the measured STD intensities against the most intense can be expressed as percentages.
Spectra were collected on a 600 MHz Varian equipped with a triple-resonance cryoprobe, and STD spectra were collected with 512 scans at an on-resonance frequency of +0.5 ppm. Panel a) is a ^1H NMR spectrum of compound 2 in 100% deuterated phosphate buffered saline (PBS, pH=7.4). b) STD NMR spectrum of compound 2 in PBS in the absence of protein. c) STD NMR spectrum of 1 mM compound 2 in the presence of 30 ng/ml HIV reverse transcriptase (CalBioChem). d) Binding epitope of compound 2 binding to HIV-RT obtained by integrating the signals from (c).

m7CCR5 = experiment: STD-NMR binding epitope study, m7CCR5; conditions: 1 mM compound, 10 μM m7CCR5
Experimental: as §2, §3
STD binding epitope studies of compound 2 interacting with m7CCR5 (isolated, bacterially-expressed CCR5 construct) is shown in FIG. 2B. […] 100 mM HEPES, 150 mM NaCl, pH=7) in the absence of protein. c) STD NMR spectrum of 1 mM compound 2 in the presence of 10 μM m7CCR5 resolubilized in DDM/DOPC bicelle buffer. d) STDD spectrum of compound 2 binding to m7CCR5 obtained by subtracting (b) from (c). e) STDD binding epitope of compound 2 complexed to m7CCR5 obtained by integrating signals from (d).

CXCR4 [5] = biological target: T2, CXCR4; experiment: STD-NMR binding epitope study, CXCR4 in CHO membrane extracts; conditions: 1 mM compound, 30% CXCR4-expressing CHO membrane extracts
Experimental: as §2, §3
STD binding epitope studes of compound 2 interacting with CXCR4 obtained from Chinese Hamster Ovary (CHO) membrane extracts as shown in FIG. 2C.

[6] = Human immunodeficiency virus 1, IIIB, MAGI, table of synthesized compounds, read-out: X4-IC50
[7] = table of synthesized compounds, read-out: R5-IC50
[8] = Human immunodeficiency virus 1, IIIB, MAGI, Table 3, read-out: MAGI Assay IC50 CXCR4
[9] = Table 3, read-out: MAGI Assay IC50 CCR5
[10] = Human immunodeficiency virus 1, IIIB, MAGI, value stated for both tropisms, read-out: IC50 against T tropic HIV in MAGI assay
[11] = MAGI, value stated for both tropisms, read-out: IC50 against M tropic HIV in MAGI assay

T2 sequence (P61073 whole entry, the tested form may be a part): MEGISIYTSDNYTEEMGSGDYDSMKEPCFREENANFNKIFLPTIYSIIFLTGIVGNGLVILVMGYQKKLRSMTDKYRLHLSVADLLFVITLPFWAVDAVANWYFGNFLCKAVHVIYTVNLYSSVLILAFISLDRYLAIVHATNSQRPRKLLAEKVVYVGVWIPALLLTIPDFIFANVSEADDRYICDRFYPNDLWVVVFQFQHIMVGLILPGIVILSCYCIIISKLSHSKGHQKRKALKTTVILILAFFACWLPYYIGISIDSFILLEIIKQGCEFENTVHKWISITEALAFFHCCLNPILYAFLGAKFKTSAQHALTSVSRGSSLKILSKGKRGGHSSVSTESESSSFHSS
T3 sequence (P51681 whole entry, the tested form may be a part): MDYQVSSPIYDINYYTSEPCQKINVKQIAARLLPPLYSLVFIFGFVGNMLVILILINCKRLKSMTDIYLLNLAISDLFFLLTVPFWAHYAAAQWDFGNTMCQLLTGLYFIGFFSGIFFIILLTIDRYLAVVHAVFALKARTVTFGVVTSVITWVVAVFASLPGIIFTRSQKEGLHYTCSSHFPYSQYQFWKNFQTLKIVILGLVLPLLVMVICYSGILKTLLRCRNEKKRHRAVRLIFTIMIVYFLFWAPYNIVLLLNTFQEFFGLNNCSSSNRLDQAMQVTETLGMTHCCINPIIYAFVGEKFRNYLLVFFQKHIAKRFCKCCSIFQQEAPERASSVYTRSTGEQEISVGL

| IC50 (HIV-1 IIIB; [6]) [µM] | IC50 (HIV-1 Ba-L; [7]) [µM] | Compound | CC50 (MAGI toxicity) [µM] | IC50 (HIV-1 IIIB; [8]) [µM] | IC50 (HIV-1 Ba-L; [9]) [µM] | IC50 ([1]; Table 3) [µM] | further results |
| --- | --- | --- | --- | --- | --- | --- | --- |
| 58.5 | 49.4 | c1ccc(Cc2cn[nH]c2C2CCN(CC3CCCCC3)CC2)cc1 [4-(4-benzyl-1H-pyrazol-3-yl)-1-(cyclohexylmethyl)piperidine] | 142 | – | – | – | – |
| – | – | Clc1nccc(CN2CCC(c3[nH]ncc3Cc3ccccc3)CC2)c1Cl | – | 1.5 | 0.8 | 4 | – |
| – | – | Cc1cn([C@H]2C[C@H](N=[N+]=[N-])[C@@H](CO)O2)c(=O)[nH]c1=O [AZT] | – | – | – | – | inhibition of Nef-M1 induced MMD (CXCR4 [2]): inactive |
| 5.3 | 8.52 | N#Cc1ccc(CN2CCC(c3[nH]ncc3Cc3ccccc3)CC2)cc1 [4-((4-(4-benzyl-1H-pyrazol-3-yl)piperidin-1-yl)methyl)benzonitrile] | 60 | – | – | – | – |
| – | – | Clc1cnccc1CN1CCC(c2[nH]ncc2Cc2ccccc2)CC1 [drawing 40] | – | 0.1 | 0.2 | 10 | – |
| – | – | c1ccc(Cc2cn[nH]c2C2CCN(Cc3ccc4ccccc4c3)CC2)cc1 [drawing 50] | – | 4 | 4 | 23 | – |
| 5.33 | 5.61 | Clc1ccc(CN2CCC(c3[nH]ncc3Cc3ccccc3)CC2)cc1 [4-(4-benzyl-1H-pyrazol-3-yl)-1-(4-chlorobenzyl)piperidine] | 18.6 | – | – | – | – |
| – | – | [O-][n+]1ccc(CN2CCC(c3[nH]ncc3Cc3ccccc3)CC2)cc1 | – | > 100 | > 100 | > 100 | – |
| 1 | 2 | CS(=O)(=O)c1ccc(CN2CCC(c3[nH]ncc3Cc3ccccc3)CC2)cc1 [4-(4-benzyl-1H-pyrazol-3-yl)-1-(4-(methylsulfonyl)benzyl)piperidine] | > 100 | – | – | – | – |
| – | – | N#Cc1ccc(CN2CCC(c3[nH]ncc3Cc3ccccc3)CC2)nc1 | – | > 100 | 43 | 211 | – |
| – | – | Cc1ccc(-c2ccc3c(c2)C=C(C(=O)Nc2ccc(C[N+](C)(C)C4CCOCC4)cc2)CCC3)cc1.[Cl-] [TAK-779, reference compound] | – | – | – | – | inhibition of JRFL envelope / HeLa-C14 cell-cell fusion (CCR5): inhibited fusion |
| – | – | COc1cccc(CN2CCC(c3[nH]ncc3Cc3ccccc3)CC2)c1Cl | – | 2 | 1 | 1.5 | – |
| 13 | 18.1 | c1ccc(Cc2cn[nH]c2C2CCN(Cc3ccccc3)CC2)cc1 [1-benzyl-4-(4-benzyl-1H-pyrazol-3-yl)piperidine] | > 100 | – | – | – | – |
| – | – | Cc1n[nH]c(C2CCN(Cc3ccncc3Cl)CC2)c1Cc1ccccc1 | – | – | – | – | inhibition at 1 µM (HIV-1 IIIB; Human immunodeficiency virus 1, IIIB, MAGI, @ 1 uM, read-out: MAGI Assay % inhib CXCR4): 79%; inhibition at 1 µM (HIV-1 Ba-L; @ 1 uM, read-out: MAGI Assay % inhib CCR5): 92%; activity at 100 µM ([1]; @ 100 uM, read-out: % Activity of RT): 4% |
| – | – | O=C1Nc2ccc(Cl)cc2[C@@](C#CC2CC2)(C(F)(F)F)O1 [efavirenz] | – | – | – | – | loss of antiviral activity against K103N/Y181C mutant compared to wild type [3]: 70 fold |
| – | – | c1cc(CN2CCCNCCNCCCNCC2)ccc1CN1CCCNCCNCCCNCC1 [AMD3100] | – | – | – | – | inhibition of Nef-M1 induced MMD (CXCR4 [2]): inhibited |
| – | – | Clc1cc(CN2CCC(c3[nH]ncc3Cc3ccccc3)CC2)ccn1 [drawing 41] | – | 0.2 | 0.3 | 10 | – |
| – | – | c1ccc(Cc2c[nH]nc2C2CCN(Cc3ccccn3)CC2)cc1 [Compound 2] | – | – | – | – | IC50 (HIV-1 IIIB; [10]): ~20 µM; IC50 (HIV-1 Ba-L; [11]): ~20 µM; interaction with HIV-1 reverse transcriptase (STD NMR) [4]: interacts; interaction with m7CCR5 (STD NMR) (m7CCR5): interacts; interaction with CXCR4 (STD NMR) (CXCR4 [5]): interacts |
| – | – | c1ccc(Cc2cn[nH]c2C2CCN(Cc3ccncn3)CC2)cc1 | – | > 100 | 20 | 146 | – |
| – | – | Fc1cc(CN2CCC(c3[nH]ncc3Cc3ccccc3)CC2)ccn1 | – | > 10 | 10 | 10 | – |
| 13.2 | 9.72 | FC(F)(F)c1ccc(CN2CCC(c3[nH]ncc3Cc3ccccc3)CC2)cc1 [4-(4-benzyl-1H-pyrazol-3-yl)-1-(4 (trifluoromethyl)benzyl)piperidine] | 18 | – | – | – | – |
| – | – | Clc1ccc(Cc2nc(CN3CCN(Cc4ccccn4)CC3)cs2)cc1 [Compound 1] | – | – | – | – | IC50 (HIV-1 IIIB; [10]): ~20 µM; IC50 (HIV-1 Ba-L; [11]): ~20 µM |
| – | – | maraviroc | – | – | – | – | inhibition of Nef-M1 induced MMD (CXCR4 [2]): inactive |
| 24.8 | 16.7 | c1ccc(Cc2cn[nH]c2C2CCN(Cc3ccccn3)CC2)cc1 [2-((4-(4-benzyl-1H-pyrazol-3-yl)piperidin-1-yl)methyl)pyridine] | > 100 | – | – | – | – |
| – | – | CS(=O)(=O)c1cc(CN2CCC(c3[nH]ncc3Cc3ccccc3)CC2)ccn1 | – | 0.4 | 0.6 | 4 | – |
| – | – | c1ccc(Cc2cn[nH]c2C2CCN(Cc3cccc4ccccc34)CC2)cc1 [drawing 49] | – | 7 | 8 | 20 | – |
| – | – | c1ccc(Cc2cn[nH]c2C2CCN(Cc3ccnc4ccccc34)CC2)cc1 | – | 1 | 0.8 | 3 | – |
| 137 | 73.5 | c1ccc(CCCC2CCN(Cc3ccccn3)CC2)cc1 | > 100 | – | – | – | – |
| – | – | CN(C)c1ccc(CN2CCC(c3[nH]ncc3Cc3ccccc3)CC2)cc1 | – | – | 5 | – | MAGI Assay IC50 CXCR4 (HIV-1 IIIB; Table 3): inactive; RT IC50 ([1]; Table 3): inactive |

| Compound | IC50 (HIV-1 IIIB; [6]) [µM] | IC50 (HIV-1 Ba-L; [7]) [µM] | CC50 (MAGI toxicity) [µM] | IC50 (HIV-1 IIIB; [8]) [µM] | IC50 (HIV-1 Ba-L; [9]) [µM] | IC50 ([1]; Table 3) [µM] | further results |
| --- | --- | --- | --- | --- | --- | --- | --- |
| Clc1cc(CN2CCC(c3[nH]ncc3Cc3ccccc3)CC2)ccn1 [drawing 93, 4-((4-(4-benzyl-1H-pyrazol-3-yl)piperidin-1-yl)methyl)-2-chloropyridine] | 0.28 | 0.17 | 34 | – | – | – | – |
| c1ccc(Cc2cn[nH]c2C2CCN(Cc3cccc4ccccc34)CC2)cc1 [drawing 86, 4-(4-benzyl-1H-pyrazol-3-yl)-1-(naphthalen-1-ylmethyl)piperidine] | 6.79 | 7.63 | 17.9 | – | – | – | – |
| c1ccc(Cc2cn[nH]c2C2CCN(Cc3ccc4ccccc4c3)CC2)cc1 [drawing 85, 4-(4-benzyl-1H-pyrazol-3-yl)-1-(naphthalen-2-ylmethyl)piperidine] | 4.03 | 4.47 | 16.8 | – | – | – | – |
| Clc1cnccc1CN1CCC(c2[nH]ncc2Cc2ccccc2)CC1 [drawing 92, 4-((4-(4-benzyl-1H-pyrazol-3-yl)piperidin-1-yl)methyl)-3-chloropyridine] | 0.21 | 0.14 | 67 | – | – | – | – |
